Laboratory results taken from patent US12637432B2, “Inhibitors of ACK1/TNK2 tyrosine kinase” (H. LEE MOFFITT CANCER CENTER AND RESEARCH INSTITUTE, INC., priority 2020, dated 2026).

These compounds were tested against T1, ACK1 (Homo sapiens, UniProt Q07912) (assay: ACK1 IC50 (Table 1, assay not specified)).
T1 construct: purchased Reaction Biology
Assay type: biochemical

T1 sequence (Q07912 whole entry): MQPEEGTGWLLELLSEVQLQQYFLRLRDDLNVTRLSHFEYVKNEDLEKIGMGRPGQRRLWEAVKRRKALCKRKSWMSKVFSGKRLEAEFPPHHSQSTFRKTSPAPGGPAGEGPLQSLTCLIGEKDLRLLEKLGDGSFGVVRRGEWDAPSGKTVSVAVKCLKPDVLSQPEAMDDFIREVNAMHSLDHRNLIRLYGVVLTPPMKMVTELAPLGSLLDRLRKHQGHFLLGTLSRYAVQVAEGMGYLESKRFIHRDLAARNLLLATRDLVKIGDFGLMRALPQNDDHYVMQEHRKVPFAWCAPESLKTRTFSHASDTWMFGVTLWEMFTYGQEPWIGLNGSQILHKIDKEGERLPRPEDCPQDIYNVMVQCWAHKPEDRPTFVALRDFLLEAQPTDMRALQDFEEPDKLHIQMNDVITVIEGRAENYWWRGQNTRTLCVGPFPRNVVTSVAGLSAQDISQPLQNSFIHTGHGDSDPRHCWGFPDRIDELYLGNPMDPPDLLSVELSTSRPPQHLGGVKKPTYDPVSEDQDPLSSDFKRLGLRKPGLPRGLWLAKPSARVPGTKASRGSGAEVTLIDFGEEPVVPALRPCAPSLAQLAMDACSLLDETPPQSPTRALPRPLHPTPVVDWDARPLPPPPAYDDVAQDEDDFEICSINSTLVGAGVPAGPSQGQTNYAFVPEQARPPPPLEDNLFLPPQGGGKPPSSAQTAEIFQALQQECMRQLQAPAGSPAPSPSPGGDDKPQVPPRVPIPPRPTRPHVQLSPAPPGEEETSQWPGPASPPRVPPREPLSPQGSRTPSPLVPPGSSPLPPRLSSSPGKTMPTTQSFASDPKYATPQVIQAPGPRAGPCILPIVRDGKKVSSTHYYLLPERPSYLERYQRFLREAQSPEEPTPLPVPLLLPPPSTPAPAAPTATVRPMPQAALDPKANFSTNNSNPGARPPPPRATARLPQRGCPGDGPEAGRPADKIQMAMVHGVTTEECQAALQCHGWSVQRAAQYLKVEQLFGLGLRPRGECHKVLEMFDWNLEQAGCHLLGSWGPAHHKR

IC50 [nM] | SMILES
46.1 | OCCn1cc(-c2ccc(Nc3ncc(Cl)c(NC[C@H]4CCCO4)n3)cc2F)cn1 [(R)-2-(4-(4-((5-chloro-4-(((tetrahydrofuran-2-yl)methyl)amino)pyrimidin-2-yl)amino)-2-fluorophenyl)-1H-pyrazol-1-yl)ethan-1-ol]
56.5 | Clc1cnc(Nc2ccc(OCCN3CCCC3)cc2)nc1NC[C@H]1CCCO1 [(R)-5-chloro-N^2-(4-(2-(pyrrolidin-1-yl)ethoxy)phenyl)-N^4-((tetrahydrofuran-2-yl)methyl)pyrimidine-2,4-diamine]
60.1 | Fc1cc(Nc2ncc(Cl)c(NC[C@H]3CCCO3)n2)ccc1OCCN1CCCC1 [(R)-5-chloro-N^2-(3-fluoro-4-(2-(pyrrolidin-1-yl)ethoxy)phenyl)-N^4-((tetrahydrofuran-2-yl)methyl)pyrimidine-2,4-diamine]
137 | COCCn1cc(-c2ccc(Nc3ncc(Cl)c(NC[C@H]4CCCO4)n3)cc2F)cn1 [(R)-5-chloro-N^2-(3-fluoro-4-(1-(2-methoxyethyl)-1H-pyrazol-4-yl)phenyl)-N^4-((tetrahydrofuran-2-yl)methyl)pyrimidine-2,4-diamine]
56.4 | O=C(COc1cccc2c1C(=O)N(C1CCC(=O)NC1=O)C2=O)NCCCCN1CCN(c2ccc(Nc3ncc(Cl)c(NC[C@H]4CCCO4)n3)cc2)CC1 (stereo partly drawn) [N-(4-(4-(4-((5-chloro-4-((((R)-tetrahydrofuran-2-yl)methyl)amino)pyrimidin-2-yl)amino)phenyl)piperazin-1-yl)butyl)-2-((2-(2,6-dioxopiperidin-3-yl)-1,3-dioxoisoindolin-4-yl)oxy)acetamide]

Each compound was assayed against T1, ACK1 (assay: Reaction Biology 33P Hotspot assay).
Assay type: biochemical

SMILES | IC50 [nM]
Clc1cnc(Nc2ccc(OCC3CCOCC3)cc2)nc1NCC1CCOCC1 [5-chloro-N^2-(4-((tetrahydro-2H-pyran-4-yl)methoxy)phenyl)-N^4-((tetrahydro-2H-pyran-4-yl)methyl)pyrimidine-2,4-diamine] | 46
COc1cc(-n2cccn2)ccc1Nc1ncc(Cl)c(NCC2CCOCC2)n1 [5-chloro-N^2-(2-methoxy-4-(1H-pyrazol-1-yl)phenyl)-N^4-((tetrahydro-2H-pyran-4-yl)methyl)pyrimidine-2,4-diamine] | 34.9
CN1CCC(n2cc(Nc3ncc(Cl)c(NCC4CCOCC4)n3)cn2)CC1 [5-chloro-N^2-(1-(1-methylpiperidin-4-yl)-1H-pyrazol-4-yl)-N^4-((tetrahydro-2H-pyran-4-yl)methyl)pyrimidine-2,4-diamine] | 138
COc1cc(-c2cnn(C)c2)ccc1Nc1ncc(Cl)c(NCC2CCOCC2)n1 [5-chloro-N^2-(2-methoxy-4-(1-methyl-1H-pyrazol-4-yl)phenyl)-N^4-((tetrahydro-2H-pyran-4-yl)methyl)pyrimidine-2,4-diamine] | 38.1
COc1cc(-n2cccn2)ccc1Nc1ncc(Cl)c(NC[C@H]2CCCO2)n1 [(R)-5-chloro-N^2-(2-methoxy-4-(1H-pyrazol-1-yl)phenyl)-N^4-((tetrahydrofuran-2-yl)methyl)pyrimidine-2,4-diamine] | 64.6
CN1CCN(c2ccc(Nc3ncc(Cl)c(NCC4CCOCC4)n3)c(O)c2)CC1 [2-((5-chloro-4-(((tetrahydro-2H-pyran-4-yl)methyl)amino)pyrimidin-2-yl)amino)-5-(4-methylpiperazin-1-yl)phenol] | 55.3
COc1cc(Nc2ncc(Cl)c(NCC3CCOCC3)n2)ccc1-c1cnn(C)c1 [5-chloro-N^2-(3-methoxy-4-(1-methyl-1H-pyrazol-4-yl)phenyl)-N^4-((tetrahydro-2H-pyran-4-yl)methyl)pyrimidine-2,4-diamine] | 27.6
CC(C)Oc1cc(Nc2ncc(Cl)c(NCC3CCOCC3)n2)ccc1-c1cnn(C)c1 [5-chloro-N^2-(3-isopropoxy-4-(1-methyl-1H-pyrazol-4-yl)phenyl)-N^4-((tetrahydro-2H-pyran-4-yl)methyl)pyrimidine-2,4-diamine] | 23.6
Cc1cnc(Nc2cc(F)c(C3CCN(C)CC3)c(F)c2)nc1Nc1ccc(Cl)c(OCC(C)C)c1 [N^4-(4-chloro-3-isobutoxyphenyl)-N^2-(3,5-difluoro-4-(1-methylpiperidin-4-yl)phenyl)-5-methylpyrimidine-2,4-diamine] | 181
CN1CCN(Cc2ccc(Nc3ncc(Cl)c(NCC4CCOCC4)n3)cc2)CC1 [5-chloro-N^2-(4-((4-methylpiperazin-1-yl)methyl)phenyl)-N^4-((tetrahydro-2H-pyran-4-yl)methyl)pyrimidine-2,4-diamine] | 69.1
Cn1cc(-c2ccc(Nc3ncc(Cl)c(NCC4CCOCC4)n3)cc2F)cn1 [5-chloro-N^2-(3-fluoro-4-(1-methyl-1H-pyrazol-4-yl)phenyl)-N^4-((tetrahydro-2H-pyran-4-yl)methyl)pyrimidine-2,4-diamine] | 31
Clc1cnc(Nc2cnn(C3CCOCC3)c2)nc1NCC1CCOCC1 [5-chloro-N^2-(1-(tetrahydro-2H-pyran-4-yl)-1H-pyrazol-4-yl)-N^4-((tetrahydro-2H-pyran-4-yl)methyl)pyrimidine-2,4-diamine] | 90
Cn1cc(Nc2ncc(Cl)c(NCC3CCOCC3)n2)cn1 [5-chloro-N^2-(1-methyl-1H-pyrazol-4-yl)-N^4-((tetrahydro-2H-pyran-4-yl)methyl)pyrimidine-2,4-diamine] | 84
CC(C)Oc1cc(-c2cnn(C)c2)ccc1Nc1ncc(Cl)c(NCC2CCOCC2)n1 [5-chloro-N^2-(2-isopropoxy-4-(1-methyl-1H-pyrazol-4-yl)phenyl)-N^4-((tetrahydro-2H-pyran-4-yl)methyl)pyrimidine-2,4-diamine] | 232

Continued, values first:

IC50 [nM] | SMILES
128 | Cn1cc(-c2ccc(Nc3ncc(Cl)c(NC[C@H]4CCCO4)n3)cc2)cn1 [(R)-5-chloro-N^2-(4-(1-methyl-1H-pyrazol-4-yl)phenyl)-N^4-((tetrahydrofuran-2-yl)methyl)pyrimidine-2,4-diamine]
69 | Clc1cnc(Nc2ccc(OCC3CCOCC3)cc2)nc1NC[C@H]1CCCO1 [(R)-5-chloro-N^2-(4-((tetrahydro-2H-pyran-4-yl)methoxy)phenyl)-N^4-((tetrahydrofuran-2-yl)methyl)pyrimidine-2,4-diamine]
34.5 | COc1cc(N2CCN(C)CC2)ccc1Nc1ncc(C)c(NCC2CCOCC2)n1 [N^2-(2-methoxy-4-(4-methylpiperazin-1-yl)phenyl)-5-methyl-N^4-((tetrahydro-2H-pyran-4-yl)methyl)pyrimidine-2,4-diamine]
14.7 | COc1cc(N2CCN(C)CC2)c(F)cc1Nc1ncc(C)c(NCC2CCOCC2)n1 [N^2-(5-fluoro-2-methoxy-4-(4-methylpiperazin-1-yl)phenyl)-5-methyl-N^4-((tetrahydro-2H-pyran-4-yl)methyl)pyrimidine-2,4-diamine]
40.4 | COc1cc(Nc2ncc(Cl)c(NC[C@H]3CCCO3)n2)ccc1-c1cnn(C)c1 [(R)-5-chloro-N^2-(3-methoxy-4-(1-methyl-1H-pyrazol-4-yl)phenyl)-N^4-((tetrahydrofuran-2-yl)methyl)pyrimidine-2,4-diamine]
40.8 | CC(C)Oc1cc(Nc2ncc(Cl)c(N[C@H](C)C3CCOCC3)n2)ccc1C1CCN(C)CC1 [(R)-5-chloro-N^2-(3-isopropoxy-4-(1-methylpiperidin-4-yl)phenyl)-N^4-(1-(tetrahydro-2H-pyran-4-yl)ethyl)pyrimidine-2,4-diamine]
352 | CC[C@@H](Nc1nc(Nc2ccc(C3CCN(C)CC3)c(OC(C)C)c2)ncc1Cl)C1CCOCC1 [(R)-5-chloro-N^2-(3-isopropoxy-4-(1-methylpiperidin-4-yl)phenyl)-N^4-(1-(tetrahydro-2H-pyran-4-yl)propyl)pyrimidine-2,4-diamine]
37 | CC(C)Oc1cc(Nc2ncc(Cl)c(N[C@H](C)C3CCOCC3)n2)ccc1N1CCN(C)CC1 [(R)-5-chloro-N^2-(3-isopropoxy-4-(4-methylpiperazin-1-yl)phenyl)-N^4-(1-(tetrahydro-2H-pyran-4-yl)ethyl)pyrimidine-2,4-diamine]

What follows are compounds tested against T1, ACK1 (assay: ACK1 ELISA % inhibition at 100 nM).
Assay type: biochemical

SMILES | inhibition at 0.1 µM [%]
COc1cc(N2CCN(C)CC2)ccc1Nc1ncc(Cl)c(N(CCc2ccccc2)CC2CCCO2)n1 (stereo not shown) [5-chloro-N^2-(2-methoxy-4-(4-methylpiperazin-1-yl)phenyl)-N^4-phenethyl-N^4-((tetrahydrofuran-2-yl)methyl)pyrimidine-2,4-diamine] | 38.5
COc1cc(N2CCN(C)CC2)ccc1Nc1ncc(Cl)c(NCc2ccc(C(F)(F)F)cc2)n1 [5-chloro-N^2-(2-methoxy-4-(4-methylpiperazin-1-yl)phenyl)-N^4-(4-(trifluoromethyl)benzyl)pyrimidine-2,4-diamine] | 31.1
CN1CCN(c2ccc(Nc3ncc(Cl)c(N(CCc4ccccc4)CC4CCCO4)n3)cc2)CC1 (stereo not shown) [5-chloro-N^2-(4-(4-methylpiperazin-1-yl)phenyl)-N^4-phenethyl-N^4-((tetrahydrofuran-2-yl)methyl)pyrimidine-2,4-diamine] | 32

Second part, the compound after the results:

inhibition at 0.1 µM [%] | SMILES
100 | COc1cc(N2CCN(C)CC2)ccc1Nc1ncc(C)c(Nc2cccc(NS(=O)(=O)C(C)(C)C)c2)n1 [N-(3-((2-((2-methoxy-4-(4-methylpiperazin-1-yl)phenyl)amino)-5-methylpyrimidin-4-yl)amino)phenyl)-2-methylpropane-2-sulfonamide]
17.5 | COc1cc(N2CCN(C)CC2)ccc1Nc1ncc(Cl)c(N[C@@H](C)c2ccc(Cl)cc2)n1 [(S)-5-chloro-N^4-(1-(4-chlorophenyl)ethyl)-N^2-(2-methoxy-4-(4-methylpiperazin-1-yl)phenyl)pyrimidine-2,4-diamine]
98.7 | COc1cc(N2CCN(C)CC2)ccc1Nc1ncc(C)c(Nc2ccc(Cl)c(NS(=O)(=O)C(C)(C)C)c2)n1 [N-(2-chloro-5-((2-((2-methoxy-4-(4-methylpiperazin-1-yl)phenyl)amino)-5-methylpyrimidin-4-yl)amino)phenyl)-2-methylpropane-2-sulfonamide]
50.2 | COc1cc(N2CCN(C)CC2)ccc1Nc1ncc(Cl)c(N[C@H](C)c2ccc(Cl)cc2)n1 [(R)-5-chloro-N^4-(1-(4-chlorophenyl)ethyl)-N^2-(2-methoxy-4-(4-methylpiperazin-1-yl)phenyl)pyrimidine-2,4-diamine]
